# Tested on: "epileptic"-like discharges of pyramidal cells
# Test: Penicilline-induced "epileptic" hippocampal slice preparation
# Format: cell-based
# Conditions: baclofen at 6 μM
# Experimental: The GABAB antagonists of the present invention interact at the GABAB receptor with IC50 values starting from about 10^-7 M (moles/liter) in rat brain cortex membranes. […] The antagonism against baclofen has also been shown in in vitro electrophysiological models, such as the penicilline-induced "epileptic" hippocampal slice preparation, where baclofen, at a concentration of 6 μM inhibits "epileptic"-like discharges of pyramidal cells. The compounds of the invention antagonise the effects of baclofen at concentrations from approximately 10 to approximately 100 μM. In vivo, antagonism has been shown by ionophoresis of baclofen on rat cerebral cortex, and systemic application of antagonists in doses of 10-100 mg/kg. The muscle relaxant effects of baclofen measured in the rotarod model are also antagonized at doses of about 30 mg/kg i.p.
structure (smiles),measurement,value
NCC(CC(=O)O)c1ccc(Cl)cc1 (stereo not shown) [baclofen],"effect on ""epileptic""-like discharges of pyramidal cells",inhibits
